In US20230104936A1, “TRPML MODULATORS” (Casma Therapeutics, Inc., priority 2019, published 2023):

Each molecule was assayed on TFEB (assay: TFEB nuclear translocation assay, HeLa wt cells). Settings: 2 hrs compound treatment, Table 1 does not say HeLa wt or TRPML1 KO.
Format: cell-based
Description: For the TFEB nuclear translocation assay, HeLa wt or HeLa TRPML1 KO cells were plated at 2700 cells/well into black-walled, 384-well Cell carrier Ultra tissue culture treated plates in complete media and incubated overnight. The next day, cells are treated for 2 hrs with compounds and incubated at 37° C. Cells were then fixed for 30 minutes at room temperature in 4% final PFA and washed five times with 90 μL PBS. PBS is aspirated from the wells and the cells are blocked with 7.5 μL blocking buffer (1:1 PBS/Odyssey block buffer containing 0.1% triton x-100 and 1% goat serum). After 30-60 minutes of block, 7.5 μL of primary anti-TFEB (rabbit) antibody is added for a final dilution of 1:200 antibody in 15 μL blocking buffer. Plates are incubated overnight at 4° C. The following day, plates are washed again into PBS, 90 μL with 5 washes, all PBS is aspirated from the wells and the cells are incubated for 1 hr in 1:1000 goat-anti rabbit Alexa 488 secondary antibody, also containing 10 μg/mL Hoechst 33342. After the 1 hr room temperature incubation, plates are washed a final time into PBS, sealed with foil and imaged with an automated epifluorescence microscopy (PerkinElmer Operetta CLS). Four different fields were imaged per well using ×20 magnification for DAPI and FITC filter sets. Images were quantified using PerkinElmer Harmony software, briefly: apply flatfield correction (basic/advanced) for input images. Use the Find Nuclei building block with channel set at Hoechst to find the nuclei. Use the Find cytoplasm building block with channel set to Alexa 488 to find the cytoplasm. Use select cell region with Channel set at Alexa 488 and region of interest as Nuclei and define outer border at 0 μm and inner at 45 μm to cover complete nuclei. Use select cell region with Channel set at Alexa 488 and region of interest as ring region and define outer border at −5 μm and inner at 0 μm to define a ring around the nucleus. Use the find calculate intensity parameter to calculate intensity of the nuclear region and the ring region. Define results as Number of nuclei and ratio of A/B where A is Intensity of Nuclei and B is intensity of the ring region.
The compound numbers correspond to the compound numbers above in Tables A or B. Compounds having an activity designated as “++++” provided an AC50 of ≤2.00 μM; compounds having an activity designated as “+++” provided an AC50 of 2.01-8.00 μM; compounds having an activity designated as “++” provided an AC50 of 8.01-9.99 μM; and compounds having an activity designated as “+” provided an AC50 of ≥10.00 μM.
With `C[C@H](c1cccc(F)c1N1CCC(F)(F)CC1)S(=O)(=O)c1ccc(S(=N)(=O)N(C)C)cc1` (single isomer, unassigned) [Compound A-890] the AC50 was 2010 to 8000 nM.
`C[C@H](c1cccc(F)c1N1CCC(F)(F)CC1)S(=O)(=O)c1ccc(S(=N)(=O)N(C)C)cc1` (single isomer, unassigned) [Compound A-891] showed an AC50 of no less than 10000 nM.
Work on `C[C@H](c1cccc(F)c1N1CCC(C2(N3CCOCC3)CC2)CC1)S(=O)(=O)c1ccc(S(=N)(=O)N(C)C)cc1` (single isomer, unassigned) [Compound A-893] yielded an AC50 of no less than 10000 nM.
In the case of `C[C@H](c1cccc(F)c1N1CCCCC1)S(=O)(=O)c1ccc(S(=N)(=O)N(C)C)cc1` (single isomer, unassigned) [Compound A-894], the AC50 was 2010 to 8000 nM.
`C[C@H](c1cccc(F)c1N1CCCCC1)S(=O)(=O)c1ccc(S(=N)(=O)N(C)C)cc1` (single isomer, unassigned) [Compound A-895] gave an AC50 of no less than 10000 nM.
`C[C@@H]1CN(CC2CCN(c3c(F)cccc3[C@@H](C)S(=O)(=O)c3ccc(S(=N)(=O)N(C)C)cc3)CC2)C[C@H](C)O1` (single isomer, unassigned) [Compound A-903] was tested, and the AC50 was no less than 10000 nM.
Molecule `CN(C)S(=O)(=O)c1ccc(S(=O)(=O)Nc2cccc(F)c2N2CCC(N3CCC4(CCOC4)C3)CC2)cc1` (single isomer, unassigned) [Compound A-910, N1-(2-(4-(2-oxa-7-azaspiro[4.4]nonan-7-yl)piperidin-1-yl)-3-fluorophenyl)-N4,N4-dimethylbenzene-1,4-disulfonamide] has an AC50 of 2010 to 8000 nM.
`CC(c1cccc(F)c1N1CCCCC1)S(=O)(=O)c1ccc(S(=O)(=O)N(C)C)cc1` (single isomer, unassigned) [Compound A-912, 4-((1-(3-fluoro-2-(piperidin-1-yl)phenyl)ethyl)sulfonyl)-N,N-dimethylbenzenesulfonamide] was tested, and the AC50 was no more than 2000 nM.
For `CC(c1cccc(F)c1N1CCC(CN2C3CCC2COC3)CC1)S(=O)(=O)c1ccc(S(C)(=O)=O)cc1` (single isomer, unassigned) [Compound A-913, 8-((1-(2-fluoro-6-(1-((4-(methylsulfonyl)phenyl)sulfonyl)ethyl)phenyl)piperidin-4-yl)methyl)-3-oxa-8-azabicyclo[3.2.1]octane], the AC50 was no more than 2000 nM.
`CC(c1cccc(F)c1N1CCC(CN2C3CCC2COC3)CC1)S(=O)(=O)c1ccc(S(C)(=O)=O)cc1` (single isomer, unassigned) [Compound A-914, 8-((1-(2-fluoro-6-(1-((4-(methylsulfonyl)phenyl)sulfonyl)ethyl)phenyl)piperidin-4-yl)methyl)-3-oxa-8-azabicyclo[3.2.1]octane] showed an AC50 of no less than 10000 nM.
With `Cc1ccc(S(=O)(=O)C(C)c2cccc(F)c2N2CCC(CN3C4CCC3COC4)CC2)cc1` (single isomer, unassigned) [Compound A-924, 8-((1-(2-fluoro-6-(1-tosylethyl)phenyl)piperidin-4-yl)methyl)-3-oxa-8-azabicyclo[3.2.1]octane] the AC50 was no more than 2000 nM.
Molecule `C[C@@H](c1cccc(F)c1N1CCCCC1)S(=O)(=O)c1ccc(S(=N)(=O)N(C)C)cc1` (single isomer, unassigned) [Compound A-930] has an AC50 of 2010 to 8000 nM.
Molecule `CC(c1cccc(F)c1N1CCC(C)(C(F)F)CC1)S(=O)(=O)c1ccc(S(=O)(=O)N(C)C)cc1` (single isomer, unassigned) [Compound A-933, 4-((1-(2-(4-(difluoromethyl)-4-methylpiperidin-1-yl)-3-fluorophenyl)ethyl)sulfonyl)-N,N-dimethylbenzenesulfonamide] has an AC50 of no more than 2000 nM.
`C[C@@H](c1cccc(F)c1N1CCC(C(F)(F)F)CC1)S(=O)(=O)c1ccc(S(=N)(=O)N(C)C)cc1` (single isomer, unassigned) [Compound A-935] gave an AC50 of no more than 2000 nM.
With `CC(c1cccc(F)c1N1CCCCC1)S(=O)(=O)c1ccc(S(=N)(=O)C(F)F)cc1` (single isomer, unassigned) [Compound A-937, (difluoromethyl)(4-((1-(3-fluoro-2-(piperidin-1-yl)phenyl)ethyl)sulfonyl)phenyl)(imino)-l6-sulfanone] the AC50 was 2010 to 8000 nM.
Work on `CC(c1cccc(F)c1N1CCCCC1)S(=O)(=O)c1ccc(S(=N)(=O)C(F)F)cc1` (single isomer, unassigned) [Compound A-938, (difluoromethyl)(4-((1-(3-fluoro-2-(piperidin-1-yl)phenyl)ethyl)sulfonyl)phenyl)(imino)-l6-sulfanone] yielded an AC50 of no less than 10000 nM.
`CC(c1cccc(F)c1N1CCCCC1)S(=O)(=O)c1ccc(S(=N)(=O)C(F)F)cc1` (single isomer, unassigned) [Compound A-939, (difluoromethyl)(4-((1-(3-fluoro-2-(piperidin-1-yl)phenyl)ethyl)sulfonyl)phenyl)(imino)-l6-sulfanone] showed an AC50 of 2010 to 8000 nM.
For `CC(c1cccc(F)c1N1CCCCC1)S(=O)(=O)c1ccc(S(=N)(=O)C(F)F)cc1` (single isomer, unassigned) [Compound A-940, (difluoromethyl)(4-((1-(3-fluoro-2-(piperidin-1-yl)phenyl)ethyl)sulfonyl)phenyl)(imino)-l6-sulfanone], the AC50 was no more than 2000 nM.
`CC(c1cccc(F)c1N1CCC(COC(C)(C)C)CC1)S(=O)(=O)c1ccc(S(=N)(=O)N(C)C)cc1` (single isomer, unassigned) [Compound A-946, 4-((1-(2-(4-(tert-butoxymethyl)piperidin-1-yl)-3-fluorophenyl)ethyl)sulfonyl)-N,N-dimethylbenzenesulfonimidamide] gave an AC50 of no more than 2000 nM.

Same assay, conditions: Homo sapiens, HeLa, 2 h, 2 hrs compound treatment, Table 1 does not say HeLa wt or TRPML1 KO
`CC(c1cccc(F)c1N1CCC(CN2C[C@@H](C)O[C@H](C)C2)CC1)S(=O)(=O)c1ccc(S(=O)(=O)N(C)C)cc1` (single isomer, unassigned) [Compound A-885, 4-[1-[2-(4-{[2,6-dimethylmorpholin-4-yl]methyl}piperidin-1-yl)-3-fluorophenyl]ethanesulfonyl]-N,N-dimethylbenzene-1-sulfonamide] showed an AC50 of no more than 2000 nM.
`C[C@H](c1cccc(F)c1N1CCC(C2(N3CCOCC3)CC2)CC1)S(=O)(=O)c1ccc(S(=N)(=O)N(C)C)cc1` (single isomer, unassigned) [Compound A-892] gave an AC50 of 8010 to 9990 nM.
Work on `C[C@@H]1CN(CC2CCN(c3c(F)cccc3[C@@H](C)S(=O)(=O)c3ccc(S(=N)(=O)N(C)C)cc3)CC2)C[C@H](C)O1` (single isomer, unassigned) [Compound A-902] yielded an AC50 of no less than 10000 nM.
Work on `CN(C)S(=O)(=O)c1ccc(S(=O)(=O)Nc2cccc(F)c2N2CCC(N3CCC4(CCOC4)C3)CC2)cc1` (single isomer, unassigned) [Compound A-909, N1-(2-(4-(2-oxa-7-azaspiro[4.4]nonan-7-yl)piperidin-1-yl)-3-fluorophenyl)-N4,N4-dimethylbenzene-1,4-disulfonamide] yielded an AC50 of 2010 to 8000 nM.
With `CC(c1cccc(F)c1N1CCCCC1)S(=O)(=O)c1ccc(S(=O)(=O)N(C)C)cc1` (single isomer, unassigned) [Compound A-911, 4-((1-(3-fluoro-2-(piperidin-1-yl)phenyl)ethyl)sulfonyl)-N,N-dimethylbenzenesulfonamide] the AC50 was no more than 2000 nM.
In the case of `CC(C)S(=N)(=O)c1ccc(S(=O)(=O)[C@H](C)c2cccc(F)c2N2CCCCC2)cc1` (single isomer, unassigned) [Compound A-923], the AC50 was no less than 10000 nM.
Work on `CC(c1cccc(F)c1N1CCC(C)(C(F)F)CC1)S(=O)(=O)c1ccc(S(=O)(=O)N(C)C)cc1` (single isomer, unassigned) [Compound A-925, 4-((1-(2-(4-(difluoromethyl)-4-methylpiperidin-1-yl)-3-fluorophenyl)ethyl)sulfonyl)-N,N-dimethylbenzenesulfonamide] yielded an AC50 of no more than 2000 nM.
`C[C@@H](c1cccc(F)c1N1CCCCC1)S(=O)(=O)c1ccc(S(=N)(=O)N(C)C)cc1` (single isomer, unassigned) [Compound A-929] was tested, and the AC50 was no more than 2000 nM.
With `C[C@@H]1CN(CC2CCN(c3c(F)cccc3[C@H](C)S(=O)(=O)c3ccc(S(=N)(=O)N(C)C)cc3)CC2)C[C@H](C)O1` (single isomer, unassigned) [Compound A-931] the AC50 was no more than 2000 nM.
For `C[C@@H](c1cccc(F)c1N1CCC(C(F)(F)F)CC1)S(=O)(=O)c1ccc(S(=N)(=O)N(C)C)cc1` (single isomer, unassigned) [Compound A-932], the AC50 was no more than 2000 nM.
`C[C@@H](c1cccc(F)c1N1CCC(F)(F)CC1)S(=O)(=O)c1ccc(S(=N)(=O)N(C)C)cc1` (single isomer, unassigned) [Compound A-936] was tested, and the AC50 was no more than 2000 nM.
In the case of `CC(c1cccc(F)c1N1CCCCC1)S(=O)(=O)c1ccc2c(c1)CCS2(=N)=O` (single isomer, unassigned) [Compound A-959], the AC50 was no less than 10000 nM.
